Data: the supplement of paper PMC8149375

Assays:
Conditions in all cases: treatment: drug alone; 5 days
769-P [1] = test: GI50, drug alone; higher = less potent
Description: (§1)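 Primary HTS: 8 RCC cell lines treated with 8 doses (up to 10 uM) of each library drug alone for 5 days; viability read by CellTiter-Glo and normalised to DMSO. GI50 was fitted with XLfit (4-parameter), AUC is the area under the dose-response curve, and minimum viability is the lowest fraction of DMSO viability across doses.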

786-O [2] = test: GI50, drug alone; higher = less potent
Description: as §1

A498 [3] = test: GI50, drug alone; higher = less potent
Description: as §1

ACHN [4] = test: GI50, drug alone; higher = less potent
Description: as §1

CAKI-1 [5] = test: GI50, drug alone; higher = less potent
Description: as §1

SN12C [6] = test: GI50, drug alone; higher = less potent
Description: as §1

TK-10 [7] = test: GI50, drug alone; higher = less potent
Description: as §1

UO-31 [8] = test: GI50, drug alone; higher = less potent
Description: as §1

769-P [9] = test: minimum viability across doses, drug alone, relative to DMSO (fraction); higher = less growth inhibition
Description: as §1

786-O [10] = test: as above
Description: as §1

A498 [11] = test: as above
Description: as §1

ACHN [12] = test: as above
Description: as §1

CAKI-1 [13] = test: as above
Description: as §1

SN12C [14] = test: as above
Description: as §1

TK-10 [15] = test: as above
Description: as §1

UO-31 [16] = test: as above
Description: as §1

769-P [17] = test: AUC of dose-response viability curve, drug alone (arbitrary (AUC of normalised viability)); higher = less growth inhibition
Description: as §1

786-O [18] = test: as above
Description: as §1

A498 [19] = test: as above
Description: as §1

ACHN [20] = test: as above
Description: as §1

CAKI-1 [21] = test: as above
Description: as §1

SN12C [22] = test: as above
Description: as §1

TK-10 [23] = test: as above
Description: as §1

UO-31 [24] = test: as above
Description: as §1

Structure (SMILES) | GI50, drug alone (769-P [1]) [µM] | GI50, drug alone (786-O [2]) [µM] | GI50, drug alone (A498 [3]) [µM] | GI50, drug alone (ACHN [4]) [µM] | GI50, drug alone (CAKI-1 [5]) [µM] | GI50, drug alone (SN12C [6]) [µM] | GI50, drug alone (TK-10 [7]) [µM] | GI50, drug alone (UO-31 [8]) [µM] | minimum viability across doses (769-P [9]) | minimum viability across doses (786-O [10]) | minimum viability across doses (A498 [11]) | minimum viability across doses (ACHN [12]) | minimum viability across doses (CAKI-1 [13]) | minimum viability across doses (SN12C [14]) | minimum viability across doses (TK-10 [15]) | minimum viability across doses (UO-31 [16]) | AUC of dose-response viability curve (769-P [17]) | AUC of dose-response viability curve (786-O [18]) | AUC of dose-response viability curve (A498 [19]) | AUC of dose-response viability curve (ACHN [20]) | AUC of dose-response viability curve (CAKI-1 [21]) | AUC of dose-response viability curve (SN12C [22]) | AUC of dose-response viability curve (TK-10 [23]) | AUC of dose-response viability curve (UO-31 [24])
Cc1ccc(F)c(NC(=O)Nc2ccc(-c3cccc4[nH]nc(N)c34)cc2)c1 [Linifanib (ABT-869)] | > 10 | 9.4 | > 10 | 7.46 | 9.96 | 6.98 | 5.72 | > 10 | 0.503 | 0.472 | 0.672 | 0.279 | 0.497 | 0.242 | 0.309 | 1.08 | 3.21 | 3.03 | 3.32 | 3.34 | 3.49 | 3.28 | 2.99 | 4.69
C[C@]1(O)C[C@@H](c2nc(-c3ccc4ccc(-c5ccccc5)nc4c3)c3c(N)nccn32)C1 [Linsitinib (OSI-906)] | > 10 | > 10 | > 10 | > 10 | > 10 | > 10 | > 10 | > 10 | 0.878 | 0.663 | 0.972 | 0.495 | 0.562 | 0.915 | 0.651 | 0.904 | 3.19 | 2.85 | 4.2 | 3.06 | 2.99 | 3.35 | 2.79 | 4.26
Cn1cnc(-c2cc3nccc(Oc4ccc(NC(=S)NC(=O)Cc5ccccc5)cc4F)c3s2)c1 [MGCD-265] | > 10 | > 10 | > 10 | > 10 | > 10 | > 10 | > 10 | > 10 | 0.898 | 0.785 | 0.977 | 0.76 | 0.635 | 0.674 | 0.938 | 1.01 | 3.46 | 3.29 | 4.09 | 3.43 | 3.59 | 3.45 | 3.44 | 5.1
Cl.Cl.NC1(c2ccc(-c3nc4ccn5c(=O)[nH]nc5c4cc3-c3ccccc3)cc2)CCC1 [MK-2206 dihydrochloride] | > 10 | 2.53 | > 10 | 0.0672 | 5.82 | > 10 | 4.66 | 9.92 | 0.626 | 0.418 | 0.917 | 0.383 | 0.464 | 0.655 | 0.435 | 0.459 | 3.04 | 2.51 | 3.78 | 2.13 | 2.92 | 3.04 | 2.55 | 3.43
O=C(O)[C@]1(Cc2cccc(Nc3nccs3)n2)CC[C@@H](Oc2cccc(Cl)c2F)CC1 [MK-5108 (VX-689)] | 2.61 | 0.0304 | 3.72 | 0.854 | 3.25 | 1.32 | 3.19 | 0.908 | 0.179 | 0.00733 | 0.41 | 0.262 | 0.419 | 0.154 | 0.404 | 0.0125 | 3.08 | 1.01 | 3.44 | 2.35 | 2.88 | 2.46 | 2.65 | 3.38
O=C(O)c1ccc(Nc2ncc3c(n2)-c2ccc(Cl)cc2C(c2c(F)cccc2F)=NC3)cc1 [MLN8054] | 5.56 | 0.523 | > 10 | 1.83 | 3.18 | 6.21 | > 10 | > 10 | 0.365 | 0.038 | 0.562 | 0.246 | 0.4 | 0.427 | 0.668 | 0.748 | 2.85 | 2.52 | 3.53 | 2.48 | 2.84 | 3.01 | 2.93 | 3.59
COc1cc(Nc2ncc3c(n2)-c2ccc(Cl)cc2C(c2c(F)cccc2OC)=NC3)ccc1C(=O)O [MLN8237 (Alisertib)] | 0.888 | 0.0711 | > 10 | 0.207 | 0.67 | 3.14 | 7.87 | > 10 | 0.316 | 0.0512 | 0.569 | 0.194 | 0.221 | 0.458 | 0.492 | 0.531 | 2.44 | 1.47 | 3.27 | 1.81 | 2.31 | 2.85 | 2.78 | 3.14
Cc1ccc(NC(=O)c2ccc(CN3CCN(C)CC3)cc2)cc1Nc1nc(-c2cccnc2)cs1 [Masitinib (AB1010)] | > 10 | 5.57 | > 10 | 9.54 | > 10 | 5.8 | > 10 | > 10 | 0.749 | 0.168 | 0.635 | 0.482 | 0.784 | 0.292 | 0.651 | 1 | 3.32 | 3.22 | 3.2 | 3.23 | 3.47 | 3.01 | 3.39 | 4.02
CC1(C)CNc2cc(NC(=O)c3cccnc3NCc3ccncc3)ccc21.O=P(O)(O)O.O=P(O)(O)O [Motesanib Diphosphate] | > 10 | > 10 | > 10 | > 10 | > 10 | > 10 | > 10 | > 10 | 0.943 | 0.777 | 0.86 | 0.818 | 0.756 | 0.832 | 0.757 | 0.976 | 3.53 | 3.26 | 3.77 | 3.4 | 3.36 | 3.19 | 3.09 | 4.68
FC(F)(F)c1ccc(/C=C/c2nc(COc3ccc(CCCCn4ccnn4)cc3)co2)cc1 [Mubritinib (TAK 165)] | > 10 | 0.0329 | 0.154 | 0.116 | > 10 | 0.0429 | 0.147 | 0.058 | 0.586 | 0.0382 | 0.151 | 0.125 | 0.765 | 0.0401 | 0.21 | 0.033 | 2.86 | 1.04 | 2.12 | 1.78 | 2.96 | 1.14 | 1.78 | 1.39
Nc1ncnc2c1c(-c1cccc(OCc3ccccc3)c1)cn2[C@H]1C[C@H](CN2CCCC2)C1 [NVP-ADW742] | > 10 | 5.94 | 9.56 | 3.35 | 6.48 | > 10 | 5.26 | 8.26 | 0.478 | 0.19 | 0.377 | 0.275 | 0.362 | 0.612 | 0.329 | 0.0137 | 3.14 | 2.71 | 3.59 | 2.38 | 3.01 | 3.2 | 2.63 | 3.24
COc1ccc(-c2ccc3ncc4c(c3c2)n(-c2ccc(N3CCNCC3)c(C(F)(F)F)c2)c(=O)n4C)cn1.O=C(O)/C=C\C(=O)O [NVP-BGT226] | 0.0362 | 0.0129 | 0.0291 | 0.0149 | 0.0272 | 0.0158 | 0.0202 | 0.0113 | 0.00969 | 0.00447 | 0.0133 | 0.00135 | 0.00344 | 0.00358 | 0.00394 | 0.00819 | 1.22 | 0.728 | 1.21 | 0.785 | 1.03 | 0.857 | 0.903 | 0.578
Cc1ccc(C(=O)Nc2cccc(C(F)(F)F)c2)cc1Nc1nc(-c2cccnc2)nc2c1cnn2C [NVP-BHG712] | 3.81 | 0.809 | 8.45 | 1.9 | 2.45 | 4.56 | 1.34 | 8.28 | 0.06 | 0.00203 | 0.023 | 0.109 | 0.0328 | 0.0886 | 0.0678 | 0.00612 | 3.13 | 2.18 | 3.97 | 2.89 | 3.03 | 3.15 | 2.45 | 5.14
Cl.Cl.Fc1cc(-c2cccc3ncc(-c4cnn(C5CCNCC5)c4)nc23)cc(F)c1CN1CCOCC1 [NVP-BSK805] | 5.73 | 3.95 | 7.77 | 1.6 | 2.39 | 7.39 | 3.4 | 8.51 | 0.0465 | 0.00287 | 0.0305 | 0.0296 | 0.0193 | 0.331 | 0.212 | 0.00823 | 3.09 | 2.23 | 3.8 | 2.62 | 2.74 | 2.87 | 2.63 | 4.15
Cn1cc(-c2ccc3ncc(Cc4ccc5ncccc5c4)n3n2)cn1 [NVP-BVU972] | > 10 | 0.589 | 2.53 | 1.32 | 1.17 | 1.4 | 1.3 | 1.4 | 0.0466 | 0.00923 | 0.0174 | 0.0166 | 0.0623 | 0.0229 | 0.12 | 0.018 | 3.07 | 2.24 | 3.94 | 2.78 | 2.77 | 2.75 | 2.58 | 4.11
CNC(=O)c1ccccc1Nc1nc(Nc2ccc(N3CCOCC3)cc2OC)ncc1Cl [NVP-TAE226] | 2.76 | 0.0528 | > 10 | 0.962 | 1.36 | 5.13 | 0.551 | 8.15 | 0.29 | 0.00915 | 0.703 | 0.102 | 0.0558 | 0.295 | 0.102 | 0.398 | 2.93 | 1.15 | 4.76 | 2.43 | 2.64 | 2.95 | 2.12 | 3.21
CN1C(=O)C(Cc2c[nH]c3ccccc23)NC1=S (configuration not stated) [Necrostatin-1] | > 10 | 0.0283 | > 10 | > 10 | > 10 | > 10 | > 10 | > 10 | 0.968 | 0.334 | 0.888 | 0.79 | 0.916 | 0.868 | 0.729 | 1.01 | 3.6 | 2.03 | 4.28 | 2.99 | 3.5 | 3.29 | 2.91 | 4.83
CCOc1cc2ncc(C#N)c(Nc3ccc(OCc4ccccn4)c(Cl)c3)c2cc1NC(=O)/C=C/CN(C)C [Neratinib (HKI-272)] | 1.14 | 0.756 | > 10 | 0.0771 | 0.407 | 1.35 | 0.161 | > 10 | 0.0782 | 0.345 | 0.894 | 0.117 | 0.161 | 0.315 | 0.251 | 0.697 | 2.43 | 2.38 | 3.99 | 1.48 | 2.11 | 2.44 | 1.77 | 4.06
